The results in this text go back to patent US20250344734A1, “UNSATURATED FATTY ACIDS AND THEIR USE TO MODIFY TASTE” (Firmenich Incorporated, priority 2022, published 2025).

Common to all, as to assay type: cell-based
The target of one experiment is T1, T2R65 (TAS2R19) (Homo sapiens, UniProt P59542).
T1 construct: expressed in transfected cells; host or cells: cells expressing a promiscuous G protein (e.g., G16g44)
T1 sequence (P59542 1-299): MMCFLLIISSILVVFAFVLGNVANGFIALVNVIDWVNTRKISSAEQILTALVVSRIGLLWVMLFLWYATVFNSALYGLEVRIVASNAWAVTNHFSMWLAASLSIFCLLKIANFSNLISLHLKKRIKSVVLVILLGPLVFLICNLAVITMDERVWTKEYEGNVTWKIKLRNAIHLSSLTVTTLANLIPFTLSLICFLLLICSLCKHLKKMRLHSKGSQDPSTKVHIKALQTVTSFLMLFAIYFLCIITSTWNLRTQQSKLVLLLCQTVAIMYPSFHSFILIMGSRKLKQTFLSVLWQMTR
The experiment is described as follows: FLIPR calcium assay, block of bitter agonist response, T2R65. The conditions noted are these: unsaturated fatty acid concentration of 200 µM, cells stimulated with known bitter agonist. Here is the method:
(§1) Cells expressing a promiscuous […] (e.g., G16g44) were transfected with vectors encoding 18 functional bitter receptor cDNAs, with one receptor per transfection. The cells were transfected directly in 384-well format high-density plates and incubated for 28 hours. Later, cells were loaded with the Ca-specific dye Fluo4-AM. After an incubation of 60 minutes, excess dye is washed off, and cells are stimulated with a known bitter agonist for each receptor and various unsaturated fatty acids. Changes in intracellular fluorescence are recorded using a FLIPR instrument. Bitter antagonists and corresponding receptors are identified based on percentage inhibition of agonist's activity on a given receptor.
(§2) The above protocol was carried out using 16 different unsaturated fatty acids. A particular T2R receptor was identified as being antagonized by a particular unsaturated fatty acid if it triggered a >25% block of agonist's cellular response at 200 μM concentration of unsaturated fatty acid. […] Table 2 indicates the sixteen (16) compounds tested by their compound number from Table 1 above. The 18 bitter taste receptors screened are the human bitter taste receptors we named. […]

The next experiment deals with T2, T2R10 (TAS2R10) (Homo sapiens, UniProt Q9NYW0).
T2 construct: expressed in transfected cells; host or cells: cells expressing a promiscuous G protein (e.g., G16g44)
T2 sequence (Q9NYW0 1-307): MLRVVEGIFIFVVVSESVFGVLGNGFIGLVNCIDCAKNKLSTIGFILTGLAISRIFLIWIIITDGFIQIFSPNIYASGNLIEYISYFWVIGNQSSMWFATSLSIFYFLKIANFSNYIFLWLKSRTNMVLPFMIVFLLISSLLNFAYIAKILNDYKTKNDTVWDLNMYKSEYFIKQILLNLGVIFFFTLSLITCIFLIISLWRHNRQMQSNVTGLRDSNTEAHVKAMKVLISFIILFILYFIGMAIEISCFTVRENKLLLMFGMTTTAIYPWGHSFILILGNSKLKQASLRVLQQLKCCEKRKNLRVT
The experiment is described as follows: FLIPR calcium assay, block of bitter agonist response, T2R10. The conditions noted are these: unsaturated fatty acid concentration of 200 µM, cells stimulated with known bitter agonist, read-out: percentage block of cellular response over baseline, 10. Here is the method: as §1
(§3) The above protocol was carried out using 16 different unsaturated fatty acids. A particular T2R receptor was identified as being antagonized by a particular unsaturated fatty acid if it triggered a >25% block of agonist's cellular response at 200 μM concentration of unsaturated fatty acid. […] Table 2 indicates the sixteen (16) compounds tested by their compound number from Table 1 above. The 18 bitter taste receptors screened are the human bitter taste receptors we named. T2R01 (TAS2R01), T2R03 (TAS2R03), T2R04 (TAS2R04), T2R07 (TAS2R07), T2R08 (TAS2R08), T2R09 (TAS2R09), T2R10 (TAS2R10), T2R13 (TAS2R13), T2R14 (TAS2R14), T2R16 (TAS2R16), T2R54 (TAS2R39, T2R61 (TAS2R43), T2R63 (TA2R20), T2R64 (TAS2R31), T2R65 (TAS2R19), T2R67 (TAS2R50), T2R71 (TAS2R41), and T2R75 (TAS2R46). The corresponding IUPHAR nomenclature for each receptor is given in parenthesis. In Table 2, these receptors are identified by the last two digits. For example, T2R01 is indicated as 01. Table 2 reports the percentage block of cellular response over baseline at an unsaturated fatty acid concentration of 200 µM.

The next experiment concerns the target T3, T2R01 (TAS2R01) (Homo sapiens, UniProt Q9NYW7).
T3 construct: expressed in transfected cells; host or cells: cells expressing a promiscuous G protein (e.g., G16g44)
T3 sequence (Q9NYW7 1-299): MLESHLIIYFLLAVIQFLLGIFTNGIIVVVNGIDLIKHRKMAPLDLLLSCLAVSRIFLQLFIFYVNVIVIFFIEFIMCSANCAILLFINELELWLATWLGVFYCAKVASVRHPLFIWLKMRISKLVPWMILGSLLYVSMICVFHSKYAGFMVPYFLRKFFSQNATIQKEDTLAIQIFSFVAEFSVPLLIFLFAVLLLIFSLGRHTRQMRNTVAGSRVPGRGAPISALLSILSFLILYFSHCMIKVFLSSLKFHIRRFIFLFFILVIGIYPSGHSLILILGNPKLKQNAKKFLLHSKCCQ
The experiment is described as follows: FLIPR calcium assay, block of bitter agonist response, T2R01. The conditions noted are these: unsaturated fatty acid concentration of 200 µM, cells stimulated with known bitter agonist, read-out: percentage block of cellular response over baseline, 01. Here is the method: as §1, §3

The next experiment addresses T4, T2R03 (TAS2R03) (Homo sapiens, UniProt Q9NYW6).
T4 construct: expressed in transfected cells; host or cells: cells expressing a promiscuous G protein (e.g., G16g44)
T4 sequence (Q9NYW6 1-316): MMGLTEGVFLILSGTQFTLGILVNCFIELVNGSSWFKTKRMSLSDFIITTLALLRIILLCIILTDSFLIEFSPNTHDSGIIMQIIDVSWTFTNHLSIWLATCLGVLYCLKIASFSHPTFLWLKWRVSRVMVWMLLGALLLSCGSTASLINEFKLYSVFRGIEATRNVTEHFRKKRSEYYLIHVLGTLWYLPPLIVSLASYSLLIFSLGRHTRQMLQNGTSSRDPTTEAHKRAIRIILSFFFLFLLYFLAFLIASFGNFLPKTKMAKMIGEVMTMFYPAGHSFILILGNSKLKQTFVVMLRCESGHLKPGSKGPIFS
Kind of experiment: FLIPR calcium assay, block of bitter agonist response, T2R03. The following applies: unsaturated fatty acid concentration of 200 µM, cells stimulated with known bitter agonist. On the procedure:
as §1, §2

A further experiment addresses T5, T2R64 (TAS2R31) (Homo sapiens, UniProt P59538).
T5 construct: expressed in transfected cells; host or cells: cells expressing a promiscuous G protein (e.g., G16g44)
T5 sequence (P59538 1-309): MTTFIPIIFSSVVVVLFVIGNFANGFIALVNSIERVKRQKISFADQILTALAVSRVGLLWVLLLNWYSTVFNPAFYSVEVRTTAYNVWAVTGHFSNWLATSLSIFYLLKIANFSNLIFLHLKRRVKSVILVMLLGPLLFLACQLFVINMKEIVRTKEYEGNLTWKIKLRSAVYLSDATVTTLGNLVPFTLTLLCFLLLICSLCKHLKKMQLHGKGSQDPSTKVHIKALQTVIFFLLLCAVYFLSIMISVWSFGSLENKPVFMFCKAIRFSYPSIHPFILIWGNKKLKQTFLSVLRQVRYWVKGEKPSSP
Kind of experiment: FLIPR calcium assay, block of bitter agonist response, T2R64. The following applies: unsaturated fatty acid concentration of 200 µM, cells stimulated with known bitter agonist. On the procedure: as §1, §2

As for `CC(C)=CCC/C(C)=C/C(=O)O` [Compound 129], on T2R65 (TAS2R19), the “percentage block of cellular response over baseline, 65” value is on record as greater than 35%. Also, the figures for the inhibition at 200 µM on T2R10 (TAS2R10) and on T2R01 (TAS2R01) were greater than 65% and 40%, respectively. In addition, the “percentage block of cellular response over baseline, 03” value on T2R03 (TAS2R03) was greater than 45%. The “percentage block of cellular response over baseline, 64” value on T2R64 (TAS2R31) is greater than 85%.
